What follows are compounds tested against T1, Human NPY5 Receptor (Homo sapiens, UniProt Q15761) (assay: Human NPY5 Receptor Binding Assay). Conditions: [125I]PYY; read-out: hNPY5 IC50.
T1 sequence (Q15761 1-445): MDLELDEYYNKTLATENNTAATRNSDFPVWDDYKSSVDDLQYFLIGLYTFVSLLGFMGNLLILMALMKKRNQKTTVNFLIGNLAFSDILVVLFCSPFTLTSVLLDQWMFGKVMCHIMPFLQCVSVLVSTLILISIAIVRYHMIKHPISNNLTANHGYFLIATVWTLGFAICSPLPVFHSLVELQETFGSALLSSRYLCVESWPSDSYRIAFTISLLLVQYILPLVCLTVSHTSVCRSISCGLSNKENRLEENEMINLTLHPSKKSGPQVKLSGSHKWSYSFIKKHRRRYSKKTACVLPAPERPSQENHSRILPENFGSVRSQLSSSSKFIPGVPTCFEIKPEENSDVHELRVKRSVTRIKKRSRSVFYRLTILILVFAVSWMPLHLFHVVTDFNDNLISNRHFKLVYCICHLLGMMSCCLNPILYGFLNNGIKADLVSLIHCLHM
Protocol: Human and Rat NPY5 Receptor Binding Assays
Binding assays are performed on GF/C Millipore 96-well plates pretreated with 0.02% polyethylenimine. The binding buffer is 25 mM Tris, 120 mM NaCl, 5 mM KCl, 1.2 mM KH2 PO4, 2.5 mM CaCl2, 1.2 mM MgSO4, 0.1% BSA and 0.5 mg/ml bacitracin, pH 7.4. Samples consist of membrane protein, 75-100 pM [125I]PYY (porcine, NEN-DuPont) and drug dilution. Nonspecific binding is defined by 1 μM PYY. After a 2 hour incubation at room temperature with constant mixing, the samples are aspirated on a vacuum manifold, and rinsed with ice-cold binding buffer. The amount of radioactivity in each well is quantitated with either gamma counting or liquid scintillation. IC50 values, which correspond to 50% inhibition of specific binding, are determined with non-linear regression analysis.

IC50	Structure (SMILES)
190 nM	Cc1ccnc(SCC(=O)Nc2ccc(C3CCCCC3)cc2)n1 [Compound 29]
> 1000 nM	Cc1nc(SCC(=O)Nc2ccc(C3CCCCC3)cc2)n[nH]1 [Compound 73, N-(4-Cyclohexyl-phenyl)-2-(5-methyl-1H-[1,2,4]triazol-3-ylsulfanyl)-acetamide]
> 1000 nM	O=C(CSc1ncnc2ccccc12)Nc1ccc(C2CCCCC2)cc1 [Compound 74, N-(4-Cyclohexyl-phenyl)-2-(quinazolin-4-ylsulfanyl)-acetamide]
> 1000 nM	O=C(CSc1nccc(C(F)(F)F)n1)Nc1ccc(C2CCCCC2)cc1 [Compound 75, N-(4-Cyclohexyl-phenyl)-2-(4-trifluoromethylpyrimidin-2-ylsulfanyl)-acetamide]
> 1000 nM	Nc1cc(N)nc(SCC(=O)Nc2ccc(C3CCCCC3)cc2)n1 [Compound 76, N-(4-Cycyclohexyl-phenyl)-2-(4,6-diamino-pyrimidin-2-ylsulfanyl)-cetamide]
> 1000 nM	CCOc1ccc2nc(SCC(=O)Nc3ccc(C4CCCCC4)cc3)sc2c1 [Compound 77, N-(4-Cyclohexyl-phenyl)-2-(6-ethoxy-benzothiazol-2-ylsulfanyl)-acetamide]
> 1000 nM	Nc1nc(SCC(=O)Nc2ccc(C3CCCCC3)cc2)nc(O)c1N=O [Compound 78, 2-(4-Amino-6-hydroxy-5-nitroso-pyrimidin-2-ylsulfanyl)-N-(4-Cyclohexyl-phenyl)-acetamide]
> 1000 nM	O=C(CSc1nc2cc(Cl)ccc2s1)Nc1ccc(C2CCCCC2)cc1 [Compound 79]
> 1000 nM	Cc1cc(C)nc(SCC(=O)Nc2ccc(C3CCCCC3)cc2)n1 [Compound 80, N-(4-Cyclohexyl-phenyl)-2-(4,6-dimethyl-pyrimidin-2-ylsulfanyl)-acetamide]
210 nM	O=C(CSc1nccc(C(F)(F)F)n1)Nc1ccc(C(=O)c2ccccc2)cc1 [Compound 83, N-(4-Benzoyl-phenyl)-2-(4-trifluoromethylpyrimidin-2-ylsulfanyl)-acetamide]
200 nM	O=C(CSc1nc(-c2ccccc2)no1)Nc1ccc(C(=O)c2ccccc2)cc1 [Compound 85, N-(4-Benzoyl-phenyl)-2-(3-phenyl-[1,2,4]oxadiazol-ylsulfanyl)-acetamide]
170 nM	Cc1nnc(SCC(=O)Nc2ccc(C(=O)c3ccccc3)cc2)s1 [Compound 86, N-(4-Benzoyl-phenyl)-2-(5-methyl-[1,3,4]thiadiazol-2-ylsulfanyl)-acetamide]
100 nM	O=C(CSc1nnnn1-c1ccc(O)cc1)Nc1ccc(C(=O)c2ccccc2)cc1 [Compound 87, N-(4-Benzoyl-phenyl)-2-[1-(4-hydroxy-phenyl)-1H-tetrazol-5-ylsulfanyl]-acetamide]
590 nM	O=C(CSc1nnc(-c2ccccc2)o1)Nc1ccc(C(=O)c2ccccc2)cc1 [Compound 89, N-(4-Benzoyl-phenyl)-2-(5-phenyl [1,3,4]oxadiazol-2-ylsulfanyl)-acetamide]

Each compound was assayed against T2, Rat NPY5 Receptor (Rattus norvegicus, UniProt Q63634) (assay: Rat NPY5 Receptor Binding Assay). Conditions: 10 μM, values marked *; read-out: rNPY5 percent inhibition at 10 μM.
T2 sequence (Q63634 1-445): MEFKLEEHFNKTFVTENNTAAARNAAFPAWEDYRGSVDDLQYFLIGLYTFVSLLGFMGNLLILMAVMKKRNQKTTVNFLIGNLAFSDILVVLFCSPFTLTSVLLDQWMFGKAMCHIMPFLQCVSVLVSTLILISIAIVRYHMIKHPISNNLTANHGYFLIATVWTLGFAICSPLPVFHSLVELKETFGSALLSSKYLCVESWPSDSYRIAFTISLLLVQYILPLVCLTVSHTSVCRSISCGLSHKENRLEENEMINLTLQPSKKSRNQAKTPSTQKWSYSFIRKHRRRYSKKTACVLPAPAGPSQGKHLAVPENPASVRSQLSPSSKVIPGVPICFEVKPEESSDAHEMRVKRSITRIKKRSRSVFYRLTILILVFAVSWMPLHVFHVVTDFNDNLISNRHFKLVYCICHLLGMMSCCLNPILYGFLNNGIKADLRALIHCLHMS

inhibition at 10 µM	Structure (SMILES)
97%	O=C(CSc1ncc[nH]1)Nc1ccc(C(=O)c2ccccc2)cc1 [Compound 10, N-(4-Benzoyl-phenyl)-2-(1H-imidazol-2-ylsulfanyl)-acetamide]

Same assay, conditions: [125I]PYY; read-out: rNPY5 IC50

IC50	Structure (SMILES)
> 1000 nM	Cc1nc(SCC(=O)Nc2ccc(C(=O)c3ccccc3)cc2)n[nH]1 [Compound 81, N-(4-Benzoyl-phenyl)-2-(5-methyl-1H-[1,2,4]triazol-3-ylsulfanyl)-acetamide]
> 1000 nM	O=C(CSc1ncnc2ccccc12)Nc1ccc(C(=O)c2ccccc2)cc1 [Compound 82, N-(4-Benzoyl-phenyl)-2-(quinazolin-4-ylsulfanyl)-acetamide]
200 nM	O=C(CSc1nccc(C(F)(F)F)n1)Nc1ccc(C(=O)c2ccccc2)cc1 [Compound 83, N-(4-Benzoyl-phenyl)-2-(4-trifluoromethylpyrimidin-2-ylsulfanyl)-acetamide]
> 1000 nM	Nc1cc(N)nc(SCC(=O)Nc2ccc(C(=O)c3ccccc3)cc2)n1 [Compound 84, N-(4-Benzoyl-phenyl)-2-(4,6-diamino-pyrimidin 2-ylsulfanyl)-acetamide]
220 nM	O=C(CSc1nc(-c2ccccc2)no1)Nc1ccc(C(=O)c2ccccc2)cc1 [Compound 85, N-(4-Benzoyl-phenyl)-2-(3-phenyl-[1,2,4]oxadiazol-ylsulfanyl)-acetamide]
150 nM	Cc1nnc(SCC(=O)Nc2ccc(C(=O)c3ccccc3)cc2)s1 [Compound 86, N-(4-Benzoyl-phenyl)-2-(5-methyl-[1,3,4]thiadiazol-2-ylsulfanyl)-acetamide]
120 nM	O=C(CSc1nnnn1-c1ccc(O)cc1)Nc1ccc(C(=O)c2ccccc2)cc1 [Compound 87, N-(4-Benzoyl-phenyl)-2-[1-(4-hydroxy-phenyl)-1H-tetrazol-5-ylsulfanyl]-acetamide]
> 1000 nM	O=C(CSc1ccnc2cc(C(F)(F)F)ccc12)Nc1ccc(C(=O)c2ccccc2)cc1 [Compound 88, N-(4-Benzoyl-phenyl)-2-(7-trifluoromethyl-quinolin-4-ylsulfanyl)-acetamide]
720 nM	O=C(CSc1nnc(-c2ccccc2)o1)Nc1ccc(C(=O)c2ccccc2)cc1 [Compound 89, N-(4-Benzoyl-phenyl)-2-(5-phenyl [1,3,4]oxadiazol-2-ylsulfanyl)-acetamide]
> 1000 nM	O=C(CSc1ccnc2cc(C(F)(F)F)ccc12)Nc1ccc(C2CCCCC2)cc1 [Compound 93, N-(4-Cyclohexyl-phenyl)-2-(7-trifluoromethyl-quinolin-4-ylsulfanyl)-acetamide]
> 1000 nM	O=C(CSc1ccc2ccccc2n1)Nc1ccc(C2CCCCC2)cc1 [Compound 95, N-(4-Cyclohexyl-phenyl)-2-(quinolin-2-ylsulfanyl)-acetamide]
> 1000 nM	O=C(CSc1ccc2ccccc2n1)Nc1ccc(C(=O)c2ccccc2)cc1 [Compound 100, N-(4-Benzoyl-phenyl)-2-(quinolin-2-ylsulanyl)-acetamide]
> 1000 nM	Nc1ccc(SCC(=O)Nc2ccc(C(=O)c3ccccc3)cc2)cc1 [Compound 103, 2-(4-Amino-phenylsulfanyl)-N-(4-benzoyl-phenyl)-acetamide]
> 1000 nM	Cc1cnc(SCC(=O)Nc2ccc(C(=O)c3ccccc3)cc2)nc1S [Compound 104, N-(4-Benzoyl-phenyl)-2-(4-mercapt-5-methyl-pyrimidin-2-ylsulfanyl)-acetamide]
> 1000 nM	Nc1nc(S)nc(SCC(=O)Nc2ccc(C(=O)c3ccccc3)cc2)n1 [Compound 105, 2-(4-Amino-mercapto-[1,3,5]triazin-2-ylsulfanyl)-N-(4-benzoyl-phenyl)-acetamide]
> 1000 nM	COc1cccc(SCC(=O)Nc2ccc(C(=O)c3ccccc3)cc2)c1 [Compound 106, N-(4-Benzoyl-phenyl)-2-(3-methoxy-phenylsulfanyl)-acetamide]
> 1000 nM	Cc1cc(C)c(CSCC(=O)Nc2ccc(C(=O)c3ccccc3)cc2)c(C)c1 [Compound 107, N-(4-Benzoyl-phenyl)-2-(2,4,6-trimethyl-benzylsulfanyl)-acetamide]
> 1000 nM	CSc1ccc(SCC(=O)Nc2ccc(C(=O)c3ccccc3)cc2)cc1 [Compound 108, N-(4-Benzoyl-phenyl)-2-(4-methylsulfanyl-phenylsulfanyl)-acetamide]
> 1000 nM	CSc1sc(-c2nnc(SCC(=O)Nc3ccc(C4CCCCC4)cc3)n2C)c2c1C=CCC2 [Compound 112, N-(4-Cyclohexyl-phenyl)-2-[4-methyl-5-(3-methylsulfanyl-6,7-dihydro-benzo[C]thiophen-1-yl)-4H-[1,2,4]triazol-3-ylsulfanyl]-acetamide]
> 1000 nM	COc1ccc(-c2nnc(SCC(=O)Nc3ccc(C4CCCCC4)cc3)n2-c2cccc(C(F)(F)F)c2)cc1 [Compound 113, N-(4-Cyclohexyl-phenyl)-2-[5-(4-methoxy-phenyl)-4-(3-trifluoromethyl-phenyl)-4-[1,2,4]triazol-3-ylsulfanyl]-acetamide]
> 1000 nM	O=C(CSc1nnc(CSCCOc2ccc(Cl)cc2Cl)o1)Nc1ccc(C2CCCCC2)cc1 [Compound 117]
> 1000 nM	O=C(CSc1n[nH]c(-c2ccco2)n1)Nc1ccc(C(=O)c2ccccc2)cc1 [Compound 118]
> 1000 nM	Cn1nnnc1SCC(=O)NCCc1cccs1 [Compound 126, 2-(1-Methyl-1H-tetrazol-5-ylsulfanyl)-N-(2-thiophen-2-yl-ethyl)-acetamide]
> 1000 nM	Cn1nnnc1SCC(=O)Nc1nc2ccccc2s1 [Compound 128, N-Benzothiazol-2-yl-2-(1-methyl-1H-tetrazol-5-ylsulfanyl)-acetamide]
> 1000 nM	Cn1nnnc1SCC(=O)N1CCCCCC1 [Compound 129, 1-Azepan-1-yl-2-(1-methyl-1H-tetrazol-5-ylsulfanyl)-ethanone]
> 1000 nM	Cn1nnnc1SCC(=O)Nc1cccc2c1Cc1ccccc1-2 [Compound 131, N-(9H-Fluoren-1-yl)-2-(1-methyl-1H-tetrazol-5-ylsulfanyl)-acetamide]
> 1000 nM	O=C(COc1ccccc1)Nc1ccc(C2CCCCC2)cc1 [Compound 132, N-(4-Cyclohexyl-phenyl)-2-phenoxy-acetamide]
> 1000 nM	CN1CCC(OCC(=O)Nc2ccc(C(=O)c3ccccc3)cc2)CC1 [Compound 133, N-(4-Benzoyl-phenyl)-2-(1-methyl-piperidin-4-yloxy)-acetamide]
> 1000 nM	O=C(COc1ccccc1)Nc1ccc(C(=O)c2ccccc2)cc1 [Compound 134, N-(4-Benzoyl-phenyl)-2-phenoxy-acetamide]
> 1000 nM	CN1CCC(OCC(=O)Nc2ccc(C3CCCCC3)cc2)CC1 [Compound 135, N-(4-Cyclohexyl-phenyl)-2-(1-methy-piperidin-4-yloxy)-acetamide]
